The term Ki denotes the equilibrium dissociation constant of an inhibitor or competing ligand from its target. As a reminder, the IC50 is the concentration at which inhibition is half-maximal.

The record followed here is patent US10336701B2, “Pyridin-2-one derivatives of formula (II) useful as EP3 receptor antagonists” (Janssen Pharmaceutica NV, priority 2017, dated 2019).

Test [1] addresses T1, EP3 receptor (Homo sapiens, UniProt P43115).
T1 construct: purchased Millipore HTS092M
T1 sequence (P43115 1-390): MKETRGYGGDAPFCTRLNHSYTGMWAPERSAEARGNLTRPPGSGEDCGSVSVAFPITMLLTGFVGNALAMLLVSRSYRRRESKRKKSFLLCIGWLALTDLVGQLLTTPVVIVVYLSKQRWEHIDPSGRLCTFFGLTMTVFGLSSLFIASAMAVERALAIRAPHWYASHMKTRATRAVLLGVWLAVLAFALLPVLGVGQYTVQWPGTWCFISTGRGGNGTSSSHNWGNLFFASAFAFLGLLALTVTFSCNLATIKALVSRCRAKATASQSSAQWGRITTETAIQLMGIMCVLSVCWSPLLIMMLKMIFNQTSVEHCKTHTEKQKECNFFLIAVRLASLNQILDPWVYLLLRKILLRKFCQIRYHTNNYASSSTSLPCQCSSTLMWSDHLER
The experiment in a line: [3H]-PGE2 binding assay (EP3 competition binding). As for the experimental part:
EP3 competition binding was determined using the following materials and experimental conditions:
Beads=Perkin Elmer RPNQ0001
EP3 membrane=Millipore HTS092M
Membrane concentration=2 μg/well
Beads concentration=0.25 mg/well
[3H]-PGE2=2 nM; DMSO—0.1%
Binding buffer=50 mM Tris, 10 mM MgCl2, 1 mM • EDTA, PH 7.4.
The binding buffer was removed from refrigeration (@ 4° C.) and allowed to warm to room temperature. Test compound (@ stock concentration of […] in DMSO) was serial dilutes (1:3) with 100% DMSO using Echo plate. Diluted test compound (30 nL) was dispensed to the 384-well assay plate (using Echo 550 Labcyte System). To each well was then added assay buffer (5 μl) and each well was spun. Beads were weighed out, dissolved in assay buffer to a concentration of 0.25 mg/15 μl. Original membrane was diluted with assay buffer to a concentration of 2 μg/5 μl. […] To each test well were then added diluted [3H]-PGE2 (5 μl), diluted membrane (5 μl), and dissolved beads (15 μl). The plate was equilibrated at room temperature on a plate shaker for 2 hours and then read with a TOPCOUNT scintillation plate reader. Results were analyzed using a Prism program with non-linear regression, one-site fit for Ki.

Test [2] addresses T1, EP3 receptor. As to the kind of experiment: CHO cell cAMP assay (forskolin and sulprostone stimulated, HTRF). The note with it: CHO cells; sulprostone 700 nM (EC80) and FSK 2 μM (EC70), 37° C. for 30 minutes; read-out: CHO_cAMP IC50. The format is cell-based. On the procedure: For detection, a homogeneous competitive immunoassay (Time Resolved Fluorescence Energy Transfer (hTR-FRET)) was used.
Cells (6K cells per well) were plated in Poly-D-Lysine coated plates the day before the assay was to be run and were incubated at 37° C. […] At the start of the assay the buffer was removed from the cells and replaced with buffer containing test compound(s). Sulprostone at an EC80 dose (700 nM) and FSK at an EC70 dose (2 μM) were added to initiate the reaction (37° C. for 30 minutes).
FSK increases cAMP production and sulprostone decreases cAMP production produced by FSK. In this assay, EP3 antagonists will increase the cAMP to the level of cAMP generated by FSK alone.
Approximately one hour later the plates were read on an Envision (Perkin Elmer) in HTRF mode.
NSP, NSN, NSsample were converted to nM cAMP using the following equation: […]
IC50 values were determined from a […] (Hill equation) of a single 11-point compound dosing.
On the technique in general: Cyclic AMP is a second messenger, typically raised through Gs and lowered through Gi signalling.

Read-outs that look alike come from different tables or passages of the source. Bounds are passed on as bounds.

Consider `CCn1ncc2c(F)cc(-c3ccc(C(CC)(CC)c4ncco4)c(=O)[nH]3)cc21` [Compound #30, 6-(1-ethyl-4-fluoro-1H-indazol-6-yl)-3-(3-(oxazol-2-yl)pentan-3-yl)pyridin-2(1H)-one], for which the Ki in test [1] (read-out: [3H]-PGE2 Binding Ki) was found to be 2 nM. The IC50 in test [2] is 12 nM.

For `CCn1ncc2c(F)cc(-c3ccc(C4(O)CN(S(=O)(=O)C(C)C)C4)c(=O)[nH]3)cc21` [compound 298, 6-(1-ethyl-4-fluoro-1H-indazol-6-yl)-3-(3-hydroxy-1-(isopropylsulfonyl)azetidin-3-yl)pyridin-2(1H)-one], the Ki in test [1] (read-out: [3H]-PGE2 Binding Ki) came out at 979 nM. In test [2], the IC50 was 8300 nM.

For `CC(C)C(/C=C1\OC(=O)NC1=O)c1ccc(-c2ccc3cccc(C(F)(F)F)c3c2)[nH]c1=O` (stereo not drawn) [compound 143, 5-(3-methyl-2-(2-oxo-6-(8-(trifluoromethyl)naphthalen-2-yl)-1,2-dihydropyridin-3-yl)butylidene)oxazolidine-2,4-dione], the inhibitory constant (Ki) in test [1] (read-out: [3H]-PGE2 Binding Ki) came to 308 nM. For the same compound, the IC50 in test [2] amounted to 734 nM.

Turning to `Cc1cc(C(CC2OC(=O)NC2=O)C(C)C)c(=O)[nH]c1-c1ccc2cccc(F)c2c1` (stereo not drawn) [Compound #112], in test [1] (read-out: [3H]-PGE2 Binding Ki), the Ki is 57 nM. Further, the IC50 in test [2] was found to be 212 nM.

Turning to `CC(C)C(C(=O)NC1CCNC1)c1ccc(-c2ccc3cccc(F)c3c2)[nH]c1=O` (stereo not drawn) [compound 178, 2-(6-(8-fluoronaphthalen-2-yl)-2-oxo-1,2-dihydropyridin-3-yl)-3-methyl-N-(pyrrolidin-3-yl)butanamide], the Ki in test [1] (read-out: [3H]-PGE2 Binding Ki) is 20 nM. Also, in test [2], the IC50 worked out at 220 nM.

For the compound `CCC(/C=C1\OC(=O)NC1=O)(CC)c1ccc(-c2ccc3cccc(C(F)(F)F)c3c2)[nH]c1=O` [compound 23, 5-(2-ethyl-2-(2-oxo-6-(8-(trifluoromethyl)naphthalen-2-yl)-1,2-dihydropyridin-3-yl)butylidene)oxazolidine-2,4-dione], in test [1] (read-out: [3H]-PGE2 Binding Ki), the Ki worked out at 228 nM.

As for `CC(C)C(/C=C1/OC(=O)NC1=O)c1ccc(-c2ccc3cccc(C#N)c3c2)[nH]c1=O` (stereo not drawn) [compound 310, (E)-7-(5-(1-(2,4-dioxooxazolidin-5-ylidene)-3-methylbutan-2-yl)-6-oxo-1,6-dihydropyridin-2-yl)-1-naphthonitrile], in test [1] (read-out: [3H]-PGE2 Binding Ki), the Ki came to 71 nM.

For `CCn1ncc2c(F)cc(-c3ccc(C(CC)(CC)c4nnc(C(C)C)o4)c(=O)[nH]3)cc21` [Compound #38, 6-(1-ethyl-4-fluoro-1H-indazol-6-yl)-3-(3-(5-isopropyl-1,3,4-oxadiazol-2-yl)pentan-3-yl)pyridin-2(1H)-one], the Ki in test [1] (read-out: [3H]-PGE2 Binding Ki) was 13 nM.

Turning to `CCn1ncc2cc(C)c(-c3ccc(C(/C=C4/OC(=O)NC4=O)(CC)CC)c(=O)[nH]3)cc21` [compound 43, 5-(2-ethyl-2-(6-(1-ethyl-5-methyl-1H-indazol-6-yl)-2-oxo-1,2-dihydropyridin-3-yl)butylidene)oxazolidine-2,4-dione], the IC50 in test [2] is over 20000 nM.

As for `CCn1nc(C)c2ccc(-c3ccc(C(C=C4OC(=O)NC4=O)(CC)CC)c(=O)[nH]3)cc21` [compound 34, 5-(2-ethyl-2-(6-(1-ethyl-3-methyl-1H-indazol-6-yl)-2-oxo-1,2-dihydropyridin-3-yl)butylidene)oxazo-lidine-2,4-dione], the IC50 in test [2] was found to be 17600 nM.

Consider `CCn1ncc2c(F)cc(-c3ccc(C4CC5COC(=O)N5C4)c(=O)[nH]3)cc21` (stereo not drawn) [compound 215, 6-(6-(1-ethyl-4-fluoro-1H-indazol-6-yl)-2-oxo-1,2-dihydropyridin-3-yl)tetrahydro-1H,3H-pyrrolo[1,2-c]oxazol-3-one], for which the Ki in test [1] (read-out: [3H]-PGE2 Binding Ki) was 165 nM.

On to `CCn1ncc2c(F)cc(-c3ccc(C(CC)(CC)c4nnc(N(C)C)o4)c(=O)[nH]3)cc21` [Compound #57, 3-(3-(5-(dimethylamino)-1,3,4-oxadiazol-2-yl)pentan-3-yl)-6-(1-ethyl-4-fluoro-1H-indazol-6-yl)pyridin-2(1H)-one], for which the Ki in test [1] (read-out: [3H]-PGE2 Binding Ki) worked out at 6 nM.

Turning to `CCn1ncc2c(F)cc(-c3ccc(C(CC)(CC)c4nnc(N)o4)c(=O)[nH]3)cc21` [Compound #51, 3-(3-(5-amino-1,3,4-oxadiazol-2-yl)pentan-3-yl)-6-(1-ethyl-4-fluoro-1H-indazol-6-yl)pyridin-2(1H)-one], the Ki in test [1] (read-out: [3H]-PGE2 Binding Ki) is 2060 nM.

`CCn1ncc2c(F)cc(-c3ccc(C4CC5CCC(C4)N5S(=O)(=O)C(C)C)c(=O)[nH]3)cc21` (stereo not drawn) [compound 206, 6-(1-ethyl-4-fluoro-1H-indazol-6-yl)-3-(8-(isopropylsulfonyl)-8-azabicyclo[3.2.1]octan-3-yl)pyridin-2(1H)-one] had a Ki in test [1] ([3H]-PGE2 Binding Ki) of 25 nM.

`CCn1ncc2c(F)cc(-c3ccc(C(C(C)C)n4cnnc4)c(=O)[nH]3)cc21` (stereo not drawn) [Compound #172, 6-(1-ethyl-4-fluoro-1H-indazol-6-yl)-3-(2-methyl-1-(4H-1,2,4-triazol-4-yl)propyl)pyridin-2(1H)-one]: the Ki in test [1] (read-out: [3H]-PGE2 Binding Ki) is 25 nM.

Take `CCN1CCOc2c(F)cc(-c3ccc(C(/C=C4\CCNC4=O)(CC)CC)c(=O)[nH]3)cc21` [compound 25, (E)-6-(4-ethyl-8-fluoro-3,4-dihydro-2H-benzo[b][1,4]oxazin-6-yl)-3-(3-((2-oxopyrrolidin-3-ylidene)methyl)pentan-3-yl)pyridin-2(1H)-one]: the inhibition constant (Ki) in test [1] (read-out: [3H]-PGE2 Binding Ki) is over 10000 nM.

Regarding `CCn1ncc2c(F)cc(-c3ccc(C(CC)(CC)CC4CCCNC4=O)c(=O)[nH]3)cc21` (stereo not drawn) [compound 58, 6-(1-ethyl-4-fluoro-1H-indazol-6-yl)-3-(3-((2-oxopiperidin-3-yl)methyl)pentan-3-yl)pyridin-2(1H)-one], the Ki in test [1] (read-out: [3H]-PGE2 Binding Ki) was found to be 7 nM.

In the case of `CCC(/C=C1/OC(=O)NC1=O)(CC)c1ccc(-c2ccc3cc(F)cc(F)c3c2)[nH]c1=O` [compound 32, (E)-5-(2-(6-(6,8-difluoronaphthalen-2-yl)-2-oxo-1,2-dihydropyridin-3-yl)-2-ethylbutylidene)oxazolidine-2,4-dione], in test [1] (read-out: [3H]-PGE2 Binding Ki), the Ki turned out to be 292 nM.

With `CC(C)c1cccc2ccc(-c3ccc(C(/C=C4\OC(=O)NC4=O)C(C)C)c(=O)[nH]3)cc12` (stereo not drawn) [compound 135, (Z)-5-(2-(6-(8-isopropylnaphthalen-2-yl)-2-oxo-1,2-dihydropyridin-3-yl)-3-methylbutylidene)oxazolidine-2,4-dione], the Ki in test [1] (read-out: [3H]-PGE2 Binding Ki) stood at 85 nM.

Take `CCn1ncc2c(F)cc(-c3ccc(C(CC4CCC(=O)N4)C(C)C)c(=O)[nH]3)cc21` (stereo not drawn) [compound 151, 6-(1-ethyl-4-fluoro-1H-indazol-6-yl)-3-(3-methyl-1-(5-oxopyrrolidin-2-yl)butan-2-yl)pyridin-2(1H)-one]: the Ki in test [1] (read-out: [3H]-PGE2 Binding Ki) amounted to 11 nM.

With `CCn1ncc2c(F)cc(-c3ccc(C4CC5CCC(C4)N5C(=O)NC(C)C)c(=O)[nH]3)cc21` (stereo not drawn) [compound 208, 3-(6-(1-ethyl-4-fluoro-1H-indazol-6-yl)-2-oxo-1,2-dihydropyridin-3-yl)-N-isopropyl-8-azabicyclo[3.2.1]octane-8-carboxamide], the affinity in test [1] ([3H]-PGE2 Binding Ki), expressed as Ki, was 158 nM.

For `CCn1ncc2c(F)cc(-c3ccc(C(CC)(CC)c4nnc(N(C)C)s4)c(=O)[nH]3)cc21` [Compound #48, 3-(3-(5-(dimethylamino)-1,3,4-thiadiazol-2-yl)pentan-3-yl)-6-(1-ethyl-4-fluoro-1H-indazol-6-yl)pyridin-2(1H)-one], the Ki in test [1] (read-out: [3H]-PGE2 Binding Ki) is 2 nM.

Consider `CCn1ncc2c(F)cc(-c3ccc(C4CCC5(CCNC5=O)CC4)c(=O)[nH]3)cc21` (stereo not drawn) [compound 207, 8-(6-(1-ethyl-4-fluoro-1H-indazol-6-yl)-2-oxo-1,2-dihydropyridin-3-yl)-2-azaspiro[4.5]decan-1-one], for which, in test [1] (read-out: [3H]-PGE2 Binding Ki), the Ki came to 15 nM.

As for `CCn1ncc2c(F)cc(-c3ccc(C(CC)(CC)c4nnc(N)s4)c(=O)[nH]3)cc21` [Compound #52, 3-(3-(5-amino-1,3,4-thiadiazol-2-yl)pentan-3-yl)-6-(1-ethyl-4-fluoro-1H-indazol-6-yl)pyridin-2(1H)-one], in test [1] (read-out: [3H]-PGE2 Binding Ki), the Ki came to 19 nM.

On to `CCC(CC)(c1ncc[nH]1)c1ccc(-c2ccc3cc(F)cc(F)c3c2)[nH]c1=O` [compound 50, 3-(3-(1H-imidazol-2-yl)pentan-3-yl)-6-(6,8-difluoronaphthalen-2-yl)pyridin-2(1H)-one], for which the Ki in test [1] (read-out: [3H]-PGE2 Binding Ki) stood at 1080 nM.
